Calls of active or inactive are those of the source. The calls are words filed in the database; no cut-off is given here.
Assays:
Nitric oxide synthase 3 = biological target: T1, Nitric oxide synthase 3 (Homo sapiens, UniProt P29474); experiment: Inhibition of human eNOS assessed as inhibition of [3H]L-arginine to [3H]L-citrulline conversion by scintillation counting
T1 sequence (P29474 whole entry): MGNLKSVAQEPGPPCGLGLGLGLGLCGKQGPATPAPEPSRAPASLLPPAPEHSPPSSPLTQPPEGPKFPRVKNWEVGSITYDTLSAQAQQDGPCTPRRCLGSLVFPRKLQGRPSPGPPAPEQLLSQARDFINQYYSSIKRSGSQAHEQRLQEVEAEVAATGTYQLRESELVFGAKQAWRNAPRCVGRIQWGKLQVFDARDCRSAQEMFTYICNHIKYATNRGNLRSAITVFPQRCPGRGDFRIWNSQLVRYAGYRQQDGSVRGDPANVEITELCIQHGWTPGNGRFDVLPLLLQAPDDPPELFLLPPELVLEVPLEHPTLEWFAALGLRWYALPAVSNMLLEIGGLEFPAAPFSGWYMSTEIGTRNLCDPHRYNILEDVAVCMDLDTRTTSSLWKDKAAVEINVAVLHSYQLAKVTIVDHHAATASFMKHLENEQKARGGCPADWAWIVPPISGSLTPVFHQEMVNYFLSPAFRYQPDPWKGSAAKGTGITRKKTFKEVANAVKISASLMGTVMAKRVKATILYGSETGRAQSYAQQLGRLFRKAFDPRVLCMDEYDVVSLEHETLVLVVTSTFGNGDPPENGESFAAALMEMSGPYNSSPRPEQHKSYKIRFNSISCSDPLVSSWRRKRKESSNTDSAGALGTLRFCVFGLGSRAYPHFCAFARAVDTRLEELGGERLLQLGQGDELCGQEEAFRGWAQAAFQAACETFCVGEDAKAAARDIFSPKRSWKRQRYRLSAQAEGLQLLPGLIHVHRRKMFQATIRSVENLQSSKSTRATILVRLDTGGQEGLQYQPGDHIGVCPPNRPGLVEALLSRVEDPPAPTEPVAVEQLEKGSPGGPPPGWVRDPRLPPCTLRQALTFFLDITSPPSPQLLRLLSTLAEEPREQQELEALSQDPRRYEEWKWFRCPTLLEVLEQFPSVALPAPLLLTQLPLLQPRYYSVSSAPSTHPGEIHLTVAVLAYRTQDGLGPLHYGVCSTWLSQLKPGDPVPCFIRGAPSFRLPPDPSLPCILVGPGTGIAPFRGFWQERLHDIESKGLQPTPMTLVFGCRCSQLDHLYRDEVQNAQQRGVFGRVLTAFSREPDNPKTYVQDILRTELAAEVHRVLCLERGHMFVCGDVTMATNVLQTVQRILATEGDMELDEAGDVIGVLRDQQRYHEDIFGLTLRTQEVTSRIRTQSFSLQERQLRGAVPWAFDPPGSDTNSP

Nitric oxide synthase 1 = Nitric oxide synthase 1 (Homo sapiens, UniProt P29475); experiment: Inhibition of human nNOS assessed as inhibition of [3H]L-arginine to [3H]L-citrulline conversion by scintillation counting
Chain of Nitric oxide synthase 1 (P29475 whole entry): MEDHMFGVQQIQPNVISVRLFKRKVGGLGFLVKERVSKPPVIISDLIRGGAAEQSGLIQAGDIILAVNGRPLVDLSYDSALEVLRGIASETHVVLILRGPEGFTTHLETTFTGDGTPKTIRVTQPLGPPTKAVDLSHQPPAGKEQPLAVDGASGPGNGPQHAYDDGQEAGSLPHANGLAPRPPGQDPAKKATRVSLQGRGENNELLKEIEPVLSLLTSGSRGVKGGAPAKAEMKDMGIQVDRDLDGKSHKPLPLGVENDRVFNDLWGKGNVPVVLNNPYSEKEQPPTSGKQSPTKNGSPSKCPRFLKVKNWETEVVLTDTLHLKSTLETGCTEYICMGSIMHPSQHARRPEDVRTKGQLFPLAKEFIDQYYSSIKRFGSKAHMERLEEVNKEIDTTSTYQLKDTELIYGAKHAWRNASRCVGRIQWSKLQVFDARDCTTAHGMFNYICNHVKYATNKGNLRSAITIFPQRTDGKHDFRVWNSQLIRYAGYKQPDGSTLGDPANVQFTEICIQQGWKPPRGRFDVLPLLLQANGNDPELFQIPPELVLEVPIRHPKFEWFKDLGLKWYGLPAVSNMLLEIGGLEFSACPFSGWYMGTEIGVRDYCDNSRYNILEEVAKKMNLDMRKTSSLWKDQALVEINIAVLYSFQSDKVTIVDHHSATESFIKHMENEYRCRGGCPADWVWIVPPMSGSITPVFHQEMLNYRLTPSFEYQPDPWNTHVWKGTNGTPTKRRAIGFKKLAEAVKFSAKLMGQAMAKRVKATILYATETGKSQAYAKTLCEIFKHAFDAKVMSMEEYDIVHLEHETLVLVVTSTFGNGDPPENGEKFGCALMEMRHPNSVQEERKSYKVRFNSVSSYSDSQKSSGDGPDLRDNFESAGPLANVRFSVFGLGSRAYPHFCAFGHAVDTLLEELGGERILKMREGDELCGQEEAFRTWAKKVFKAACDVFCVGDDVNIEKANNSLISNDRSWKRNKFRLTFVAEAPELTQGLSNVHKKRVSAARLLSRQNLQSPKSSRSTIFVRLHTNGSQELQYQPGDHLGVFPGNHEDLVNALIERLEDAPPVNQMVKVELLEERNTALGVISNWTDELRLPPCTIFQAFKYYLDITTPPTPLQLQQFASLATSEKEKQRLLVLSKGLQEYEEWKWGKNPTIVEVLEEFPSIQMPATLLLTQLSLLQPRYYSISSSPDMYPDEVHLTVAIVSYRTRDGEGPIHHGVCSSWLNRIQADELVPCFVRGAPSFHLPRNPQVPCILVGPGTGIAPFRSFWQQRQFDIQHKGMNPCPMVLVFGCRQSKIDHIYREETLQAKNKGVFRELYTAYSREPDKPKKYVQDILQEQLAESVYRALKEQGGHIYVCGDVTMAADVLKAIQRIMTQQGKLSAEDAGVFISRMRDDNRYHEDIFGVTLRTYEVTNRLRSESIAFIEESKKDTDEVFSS

[1] = biological target: Nitric oxide synthase, inducible (Homo sapiens, UniProt P35228); experiment: Inhibition of human iNOS assessed as inhibition of [3H]L-arginine to [3H]L-citrulline conversion by scintillation counting
Chain of Nitric oxide synthase, inducible (P35228 whole entry): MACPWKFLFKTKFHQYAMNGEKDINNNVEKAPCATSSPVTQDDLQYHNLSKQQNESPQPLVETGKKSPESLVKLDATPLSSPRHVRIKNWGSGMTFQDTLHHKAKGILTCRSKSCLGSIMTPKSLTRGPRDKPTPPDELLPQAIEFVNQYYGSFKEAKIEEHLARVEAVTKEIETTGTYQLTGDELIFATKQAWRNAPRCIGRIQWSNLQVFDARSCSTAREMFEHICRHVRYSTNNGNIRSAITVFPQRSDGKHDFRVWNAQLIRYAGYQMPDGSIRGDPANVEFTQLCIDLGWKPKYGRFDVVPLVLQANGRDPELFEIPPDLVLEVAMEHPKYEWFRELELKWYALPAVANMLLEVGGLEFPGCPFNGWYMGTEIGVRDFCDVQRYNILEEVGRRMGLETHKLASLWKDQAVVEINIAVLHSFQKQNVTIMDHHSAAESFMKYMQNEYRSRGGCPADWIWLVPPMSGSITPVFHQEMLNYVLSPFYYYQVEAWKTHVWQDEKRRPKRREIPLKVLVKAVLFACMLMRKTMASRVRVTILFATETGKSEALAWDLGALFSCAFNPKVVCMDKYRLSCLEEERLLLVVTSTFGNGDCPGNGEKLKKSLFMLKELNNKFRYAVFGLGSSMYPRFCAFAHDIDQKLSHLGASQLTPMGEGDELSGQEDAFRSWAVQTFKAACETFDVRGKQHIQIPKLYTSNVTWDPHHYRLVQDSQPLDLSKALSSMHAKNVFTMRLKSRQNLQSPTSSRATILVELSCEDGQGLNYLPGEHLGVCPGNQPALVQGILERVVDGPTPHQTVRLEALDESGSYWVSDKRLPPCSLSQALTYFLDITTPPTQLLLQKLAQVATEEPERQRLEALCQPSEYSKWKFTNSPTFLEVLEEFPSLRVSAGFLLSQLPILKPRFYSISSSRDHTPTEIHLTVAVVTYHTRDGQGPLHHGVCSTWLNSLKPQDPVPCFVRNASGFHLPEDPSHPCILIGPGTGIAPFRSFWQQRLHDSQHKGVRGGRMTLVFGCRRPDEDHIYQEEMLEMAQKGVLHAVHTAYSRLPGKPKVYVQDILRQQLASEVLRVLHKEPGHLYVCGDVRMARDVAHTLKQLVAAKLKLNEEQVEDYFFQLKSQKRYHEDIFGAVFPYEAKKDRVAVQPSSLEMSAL

[2] = Absolute oral bioavailability in rat; assay type: ADME, organism-based; conditions: in vivo
[3] = Cmax in rat; assay type: ADME, organism-based; conditions: in vivo
Cytochrome P450 2C9 = Cytochrome P450 2C9 (Homo sapiens, UniProt P11712); experiment: Inhibition of CYP2C9; assay type: ADME
Chain of Cytochrome P450 2C9 (P11712 whole entry): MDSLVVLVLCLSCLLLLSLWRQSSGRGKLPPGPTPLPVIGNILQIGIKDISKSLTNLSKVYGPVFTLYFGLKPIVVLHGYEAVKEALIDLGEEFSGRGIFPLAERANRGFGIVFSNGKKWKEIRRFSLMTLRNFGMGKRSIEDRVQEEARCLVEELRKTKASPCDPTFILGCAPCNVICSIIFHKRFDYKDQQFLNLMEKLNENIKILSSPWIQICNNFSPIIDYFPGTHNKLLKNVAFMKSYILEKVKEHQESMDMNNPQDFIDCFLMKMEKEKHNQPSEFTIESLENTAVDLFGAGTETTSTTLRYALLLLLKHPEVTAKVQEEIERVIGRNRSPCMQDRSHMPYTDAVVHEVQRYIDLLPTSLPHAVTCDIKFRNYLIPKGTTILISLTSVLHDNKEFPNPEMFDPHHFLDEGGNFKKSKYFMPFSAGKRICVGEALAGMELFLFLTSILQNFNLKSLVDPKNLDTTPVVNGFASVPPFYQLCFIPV

[4] = Clearance in rat; assay type: ADME, organism-based; conditions: in vivo
[5] = Inhibition of CYP; assay type: ADME
[6] = biological target: T2, Nitric oxide synthase, inducible (Mus musculus) (UniProt P29477); experiment: Binding affinity to mouse iNOSox L-arginine binding site by X-ray crystallography
T2 sequence (whole entry): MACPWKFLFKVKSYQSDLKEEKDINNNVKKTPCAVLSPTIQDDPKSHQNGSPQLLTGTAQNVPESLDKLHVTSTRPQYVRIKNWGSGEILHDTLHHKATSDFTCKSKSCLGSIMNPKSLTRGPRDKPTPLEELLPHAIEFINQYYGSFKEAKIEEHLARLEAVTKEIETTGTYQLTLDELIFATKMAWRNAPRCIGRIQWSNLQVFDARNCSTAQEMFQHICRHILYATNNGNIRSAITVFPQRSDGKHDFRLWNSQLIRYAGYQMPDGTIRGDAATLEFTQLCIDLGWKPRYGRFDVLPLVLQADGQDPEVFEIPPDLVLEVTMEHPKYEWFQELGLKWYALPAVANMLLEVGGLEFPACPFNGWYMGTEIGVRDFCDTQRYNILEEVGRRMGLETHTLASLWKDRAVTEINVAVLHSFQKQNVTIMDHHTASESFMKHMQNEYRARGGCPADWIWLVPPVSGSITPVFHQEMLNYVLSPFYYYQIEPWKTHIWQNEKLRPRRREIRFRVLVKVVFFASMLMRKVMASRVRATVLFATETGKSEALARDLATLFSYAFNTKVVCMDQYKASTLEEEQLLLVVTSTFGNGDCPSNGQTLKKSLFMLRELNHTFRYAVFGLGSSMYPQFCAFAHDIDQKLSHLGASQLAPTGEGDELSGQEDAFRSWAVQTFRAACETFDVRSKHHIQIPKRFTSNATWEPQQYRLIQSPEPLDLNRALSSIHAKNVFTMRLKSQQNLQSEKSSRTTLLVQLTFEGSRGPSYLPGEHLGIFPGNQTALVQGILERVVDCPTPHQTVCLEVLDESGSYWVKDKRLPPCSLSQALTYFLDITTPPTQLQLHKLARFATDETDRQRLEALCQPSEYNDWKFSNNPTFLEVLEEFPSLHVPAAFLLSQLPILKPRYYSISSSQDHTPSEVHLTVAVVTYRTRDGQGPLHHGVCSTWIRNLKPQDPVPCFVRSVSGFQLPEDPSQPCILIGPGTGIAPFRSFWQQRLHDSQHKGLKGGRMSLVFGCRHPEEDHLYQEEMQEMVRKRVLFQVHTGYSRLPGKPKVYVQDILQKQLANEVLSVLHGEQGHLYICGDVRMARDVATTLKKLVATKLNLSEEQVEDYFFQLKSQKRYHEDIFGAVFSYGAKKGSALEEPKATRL

Row | IC50 (Nitric oxide synthase 3) [µM] | IC50 (Nitric oxide synthase 1) [µM] | IC50 [1] [µM] | SMILES | other results
1 | 18.2 | 1.2 | – | COc1ccnc(CCc2nc3cc(-c4ccccc4)cnc3[nH]2)c1 | –
2 | 53.7 | 3.39 | 0.115 | COc1ccnc(CSc2nc3cccnc3[nH]2)c1 | –
3 | 112 | 13.8 | – | COc1ccnc(CCc2nc3ncccc3[nH]2)c1 | bioavailability [2]: 48%; Cmax [3]: 2240 ng/mL; IC50 (Cytochrome P450 2C9): 3.16 µM; clearance [4]: 36.8 mL/min/kg
4 | 45.7 | 18.6 | 0.145 | COc1ccnc(CCc2nc3c(C)ccnc3[nH]2)c1 | –
5 | 87.1 | 1.91 | 0.055 | CCCCc1cnc2[nH]c(CCc3cc(OC)ccn3)nc2c1 | –
6 | > 100 | – | 4.68 | CC(=N)NCCCC[C@H](N)C(=O)O [L-NIL] | –
7 | > 100 | > 100 | 49 | COc1ccnc(CSc2nc3ccncc3[nH]2)c1 | –
8 | 66.1 | 13.8 | 0.724 | COc1ccnc(CCc2nc3c(OCCc4ccccc4)ccnc3[nH]2)c1 | –
9 | > 100 | > 100 | > 100 | COc1cnc(CSC)cc1OC | –
10 | 204 | 123 | 0.513 | COCCOc1ccnc2[nH]c(CCc3cc(OC)ccn3)nc12 | –
11 | – | – | – | C[C@H]1CC(=N)N[C@@H]2[C@H](Cl)[C@@H]21 | Ki (Nitric oxide synthase 3): 0.0186 µM; Ki [1]: 0.00186 µM
12 | 1.07 | 0.447 | 0.155 | COc1ccnc(CSC)c1 | –
13 | 87.1 | 8.32 | 0.186 | COc1ccnc(CCc2nc3cc(Br)cnc3[nH]2)c1 | –
14 | > 100 | 12.6 | 2.29 | COc1ccnc(CCc2nc3c(C)cc(C)nc3[nH]2)c1 | –
15 | 26.3 | 26.9 | 10.7 | COc1ccnc(CSc2nc3ccccc3[nH]2)c1 | –
16 | 204 | 58.9 | 0.776 | COc1ccnc(CCc2nc3c(OC)ccnc3[nH]2)c1 | –
17 | 100 | 26.3 | 0.38 | COc1ccnc(CCc2nc3ccc(OC)nc3[nH]2)c1 | –
18 | > 100 | 6.61 | 0.0708 | COc1ccnc(NC2CCN(C(=O)c3ccc(C#N)nc3)CC2)c1 | –
19 | – | – | – | COc1ccnc(CCc2nc3cccnc3[nH]2)c1 | pIC50 [5]: < 4; Activity [6]: Active
20 | > 100 | > 100 | > 100 | COc1ccnc(CSC)c1OC | –
21 | > 100 | > 100 | > 100 | CC(=N)NCCCC[C@H](N)C(=O)Nc1nnn[nH]1 | –

— ChEMBL document CHEMBL1799930, “Novel nanomolar imidazo[4,5-b]pyridines as selective nitric oxide synthase (iNOS) inhibitors: SAR and structural insights” (Bioorg Med Chem Lett, 2011)
